Data taken from patent publication US5130307A, “Aminoesters of rapamycin” (American Home Products Corporation, priority 1991, dated 1992).
Converted amounts (≈) assume the structure as drawn.

Columns and labels:
[1] = tested on: pinch skin graft from male DBA/2 donors transplanted to male BALB/c recipients; test: survival time of pinch skin graft; assay type: in vivo; details: for Skin Graft (days + SD), mean graft survival time: intraperitoneally
Experimental: (§1) Immunosuppressive activity was evaluated in an in vitro standard pharmacological test procedure to measure lymphocyte proliferation (LAF) and in two in vivo standard pharmacological test procedures. The first in vivo procedure was a popliteal lymph node (PLN) test procedure which measured the effect of compounds of this invention on a mixed lymphocyte reaction and the second in vivo procedure evaluated the survival time of a pinch skin graft.
The second in vivo test procedure is designed to determine the survival time of pinch skin graft from male DBA/2 donors transplanted to male BALB/c recipients. The method is adapted from Billingham R.E. and Medawar P.B., J. Exp. Biol. 28:385-402, (1951). Briefly, a pinch skin graft from the donor is grafted on the dorsum of the recipient as a homograft, and an autograft is used as control in the same region. […] Untreated recipients serve as rejection control. The graft is monitored daily and observations are recorded until the graft becomes dry and forms a blackened scab. This is considered as the rejection day. The mean graft survival time (number of days ±S.D.) of the drug treatment group is compared with the control group.

[2] = tested on: Candida albicans ATCC 38247; test: antifungal plate test, MIC; assay type: cell-based; details: ATCC38247
Experimental: (§2) The following represents the typical procedure used. Compound to be tested was placed on sterile dried 1/4" plate disks, and allowed to dry. Agar plates were seeded with fungi and allowed to solidify. The impregnated disks were placed on the seeded Agar surface and incubated for the time required for the particular culture. Results are expressed in MIC (μg/ml) to inhibit growth.

[3] = tested on: Candida albicans ATCC 10231; test: antifungal plate test, MIC; assay type: cell-based; details: ATCC10231
Experimental: as §2

[4] = tested on: Candida albicans ATCC 38246; test: antifungal plate test, MIC; assay type: cell-based; details: ATCC38246
Experimental: as §2

Candida albicans 3669 = test: antifungal plate test, MIC; assay type: cell-based
Experimental: as §2

[5] = tested on: Candida albicans ATCC 38248; test: antifungal plate test, MIC; assay type: cell-based; details: ATCC38248
Experimental: as §2

popliteal lymph node = popliteal lymph node (PLN) test procedure, in vivo mixed lymphocyte reaction; parameters: species or system C3H mice (BALB/c donors)
Experimental: as §1
A mixed lymphocyte reaction (MLR) occurs when lymphoid cells from genetically distinct animals are combined in tissue culture. Each stimulates the other to undergo blast transformation which results in increased DNA synthesis that can be quantified by the incorporation of tritiated thymidine. Since stimulating a MLR is a function of disparity at Major Histocompatibility antigens, an in vivo popliteal lymph node (PLN) test procedure closely correlates to host vs. graft disease. Briefly, irradiated spleen cells from BALB/c donors are injected into the right hind foot pad of recipient C3H mice. The drug is given daily, p.o. from Day 0 to Day 4. On Day 3 and Day 4, tritiated thymidine is given i.p., b.i.d. On Day 5, the hind popliteal lymph nodes are removed and dissolved, and radioactivity counted. […] Percent suppression is calculated using the non-drug treated animals as allogenic control. […]

transplant rejection = details: cited from earlier work
IgE-like antibodies = details: cited from earlier work
[6] = tested on: experimental allergic encephalomyelitis; details: in vivo; cited from earlier work
[7] = alone or in combination with picibanil; cited from earlier work
Candida albicans = details: in vitro and in vivo; cited from earlier work

| SMILES | Skin Graft (days + SD), mean graft survival time [1] | MIC [2] | MIC [3] | MIC [4] | MIC (Candida albicans 3669) | MIC [5] | effect on T cell proliferation in PLN (in words) (popliteal lymph node; negative ratio) | survival time of the skin graft (in words) ([1]; untreated grafts typically rejected within 6-7 days) | inhibition of transplant rejection / immunosuppressive effect (in words) (transplant rejection) | inhibition of the formation of IgE-like antibodies (in words) (IgE-like antibodies) | effectiveness in experimental allergic encephalomyelitis model (in words) [6] | antitumor activity (in words) [7] | antifungal activity (in words) (Candida albicans) | PLN (ratio) (popliteal lymph node; p.o. daily Day 0 to Day 4, ratio, rapamycin 1.0) |
| --- | --- | --- | --- | --- | --- | --- | --- | --- | --- | --- | --- | --- | --- | --- |
| CO[C@H]1C[C@@H]2CC[C@@H](C)[C@@](O)(O2)C(=O)C(=O)N2CCCC[C@H]2C(=O)O[C@H]([C@H](C)C[C@@H]2CC[C@@H](OC(=O)CC[C@H](NC(=O)OC(C)(C)C)C(=O)OC(C)(C)C)[C@H](OC)C2)CC(=O)[C@H](C)/C=C(\C)[C@@H](OC(=O)CC[C@H](NC(=O)OC(C)(C)C)C(=O)OC(C)(C)C)[C@@H](OC)C(=O)[C@H](C)C[C@H](C)/C=C/C=C/C=C/1C [Example 11, Rapamycin-31,42-diester with 5-(1,1-dimethylethoxy)-4-[[(1,1-dimethylethoxy)-carbonyl]-amino]-5-oxopentanoic acid] | 10.5 ± 1.3 days | > 0.4 µg/mL | > 0.4 µg/mL | > 0.4 µg/mL | > 0.4 µg/mL | > 0.4 µg/mL | – | – | – | – | – | – | – | – |
| CO[C@H]1C[C@@H]2CC[C@@H](C)[C@@](O)(O2)C(=O)C(=O)N2CCCC[C@H]2C(=O)O[C@H]([C@H](C)C[C@@H]2CC[C@@H](OC(=O)[C@H](CCCCNC(=O)OC(C)(C)C)NC(=O)OC(C)(C)C)[C@H](OC)C2)CC(=O)[C@H](C)/C=C(\C)[C@@H](O)[C@@H](OC)C(=O)[C@H](C)C[C@H](C)/C=C/C=C/C=C/1C [Example 12, Rapamycin-42-ester with N^α, N^ε -bis[(1,1-dimethylethoxy)carbonyl]-L-lysine] | 12.0 ± 2.0 days | 0.1 µg/mL (≈ 0.0805 µM) | 0.2 µg/mL (≈ 0.161 µM) | > 0.4 µg/mL | 0.4 µg/mL (≈ 0.322 µM) | 0.2 µg/mL (≈ 0.161 µM) | may cause T cell proliferation in the PLN test procedure | increased survival time observed in the skin graft test procedure | – | – | – | – | – | – |
| CO[C@H]1C[C@@H]2CC[C@@H](C)[C@@](O)(O2)C(=O)C(=O)N2CCCC[C@H]2C(=O)O[C@H]([C@H](C)C[C@@H]2CC[C@@H](OC(=O)[C@H](CCCCNC(=O)OC(C)(C)C)NC(=O)OC(C)(C)C)[C@H](OC)C2)CC(=O)[C@H](C)/C=C(\C)[C@@H](OC(=O)[C@H](CCCCNC(=O)OC(C)(C)C)NC(=O)OC(C)(C)C)[C@@H](OC)C(=O)[C@H](C)C[C@H](C)/C=C/C=C/C=C/1C [Example 13, Rapamycin-31,42-diester with N^α, N^ε bis [(1,1-dimethylethoxy)carbonyl]-L-lysine] | 7.0 ± 0.6 days | > 0.4 µg/mL | > 0.4 µg/mL | > 0.4 µg/mL | > 0.4 µg/mL | > 0.4 µg/mL | – | – | – | – | – | – | – | – |
| C=CC[C@@H]1/C=C(\C)C[C@H](C)C[C@H](OC)[C@H]2O[C@@](O)(C(=O)C(=O)N3CCCC[C@H]3C(=O)O[C@H](/C(C)=C/[C@@H]3CC[C@@H](O)[C@H](OC)C3)[C@H](C)[C@@H](O)CC1=O)[C@H](C)C[C@@H]2OC [FK-506] | – | – | – | – | – | – | – | – | effective as immunosuppressive agents | – | – | – | – | – |
| CO[C@H]1C[C@@H]2CC[C@@H](C)[C@@](O)(O2)C(=O)C(=O)N2CCCC[C@H]2C(=O)O[C@H]([C@H](C)C[C@@H]2CC[C@@H](O)[C@H](OC)C2)CC(=O)[C@H](C)/C=C(\C)[C@@H](O)[C@@H](OC)C(=O)[C@H](C)C[C@H](C)/C=C/C=C/C=C/1C [Rapamycin] | 12.0 ± 1.7 days | – | – | – | – | – | – | – | effective in inhibiting transplant rejection | effectively inhibited the formation of IgE-like antibodies | effective in the experimental allergic encephalomyelitis model | has been shown to have antitumor activity | antifungal activity, particularly against Candida albicans, both in vitro and in vivo | 1.0 |
